# Assay results as given in US20230271949A1, “GLP-1R MODULATING COMPOUNDS” (ASCLETIS BIOSCIENCE CO., LTD., priority 2022, published 2023).
# Biological target: GLP-1R (Homo sapiens, UniProt P43220)
# Assay: GLP-1R agonist cAMP stimulation assay (HTRF cAMP)
# Type: cell-based
# Conditions: HEK293 cell line expressing GLP-1 target; HTRF cAMP agonist mode, 30 min at RT
# Protocol: cAMP Detection Kit, Cisbio (Cat #62AM4PEJ)
# The cell line was constructed by WuXi.
# 2. Methods • a) The compound source plate preparation: • The reference 7-37 was diluted from 500 nM, 4-fold, 10 points in DMSO using Bravo. The compounds were diluted from […], 3-fold, 10 points in DMSO using Bravo. • b) Transfer of compounds: • 1) Use Echo transfer 100 nL cpd to the OptiPlate-384 plate. • 2) Spin the plates at 1000 rpm for 5 sec. • c) Cell suspension preparation: • 1) Thaw 1 vial of GLP-1 cells rapidly in 37° C. water bath. • 2) Transfer cell suspension into 10 ml of HBSS in a 15 ml conical tube. • 3) Centrifuge cells at 1000 rpm for 5 min at room temperature to pellet cells • 4) Gently aspirate supernatant being careful not to aspirate cells. • 5) Flick pellet to loose cells and re-suspend the cell pellet in 10 ml HBSS. Use a sterile pipette to pipette up and down to dislodge clumps. • 6) Count cells for concentration and to determine cell viability on Vi-cell. • 7) Re-suspend the GLP-1 cells in assay buffer at a concentration of 1.0×E5/mL cells. • 8) Transfer 10 μL GLP-1 cells to OptiPlate-384 plate. • d) HTRF cAMP Assay for agonist: • 1) Incubate the plate at RT for 30 min before adding the detection reagent. • 2) Add 10 μL each of detection reagent using Electric Multiple Channel Pipette. • 3) Cover the 384 plate with TopSeal-A film and incubate for 60 minutes at room temperature. • Remove the TopSeal-A, read on EnVision.
# Create a new log (Inhibitor) vs response—Variable slope mode in Prism5.0 software, substitute the standard curve concentration (x) and its corresponding 665/615 data (y) into the model, convert the standard curve concentration (abscissa) by x=log(x), and make the standard curve through the converted xy.
# Transform the data of 665/615 in the whole plate into a column of data, substitute it into y in the table of standard curve concentration (x) and 665/615 data (y), copy the x (interpolatedx) corresponding to automatic conversion by the software into a table, convert it into cAMP level by the formula x=10^(x), and reset the data into 384 distribution.
# % Activity=(cAMP level−LC)/(HC−LC)*100% • Z factor: 1-3*(STD_HC+[…])/(HC-LC) • Assay Window: HC/LC • LC: The average cAMP level of adding DMSO wells • HC: The average cAMP level of adding the top concentration of reference compounds wells.
# Create a new […] in Prism5.0 software, substitute the sample concentration (x) and its corresponding % Activity data (y) into the model, convert the standard curve concentration (abscissa) to x=log(x), and make the sample curve through the converted xy.
# Sequence of GLP-1R (P43220 24-463): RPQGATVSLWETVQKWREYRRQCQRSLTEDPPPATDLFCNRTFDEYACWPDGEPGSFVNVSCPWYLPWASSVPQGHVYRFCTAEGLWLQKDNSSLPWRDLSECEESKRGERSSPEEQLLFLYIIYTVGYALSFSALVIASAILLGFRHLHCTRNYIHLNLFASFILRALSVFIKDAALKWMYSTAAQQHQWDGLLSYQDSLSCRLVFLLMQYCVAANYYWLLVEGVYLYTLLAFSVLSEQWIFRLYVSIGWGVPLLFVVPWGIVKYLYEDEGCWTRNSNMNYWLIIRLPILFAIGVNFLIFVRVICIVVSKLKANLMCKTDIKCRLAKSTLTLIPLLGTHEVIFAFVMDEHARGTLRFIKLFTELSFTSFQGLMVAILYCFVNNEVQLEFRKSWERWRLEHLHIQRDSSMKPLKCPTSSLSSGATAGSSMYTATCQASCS
row,EC50,SMILES
1,0.17 nM,Cc1cc(C(=O)Nc2ccc3c(c2)nc(CN2CC=C(c4cccc(OCc5ccc(Cl)cc5F)n4)CC2)n3C[C@@H]2CCO2)cc2nn[nH]c12 [Compound 242]
2,0.63 nM,CC1(c2ccc(Cl)cc2F)Oc2cccc(C3=CCN(Cc4nc5cc(NC(=O)c6cc(F)c7c(c6)C6(CC6)C(=O)N7)ccc5n4C[C@@H]4CCO4)CC3)c2O1 (stereo partly drawn) [Compound 314]
3,19.8 nM,O=C(Nc1nc2[nH]cnc2o1)c1ccc2c(c1)nc(CN1CC=C(c3cccc(OCc4ccc(Cl)cc4F)n3)CC1)n2C[C@@H]1CCO1 [Compound 404]
4,0.75 nM,O=C(Nc1ccc2c(c1)C1(CC1)C(=O)N2)c1ccc2c(c1)nc(CN1CCC(c3cccc(OCc4ccc(Cl)cc4F)n3)CC1)n2C[C@@H]1CCO1 [Compound 86]
5,0.75 nM,Cc1n[nH]c2c(C)cc(C(=O)Nc3ccc4nc(CN5CC=C(c6cccc(OCc7ccc(C#N)cc7F)n6)CC5)n(CC5CCO5)c4c3)cc12 (stereo not drawn) [Compound 291]
6,5.78 nM,Cc1n[nH]c2ccc(NC(=O)c3ccc4nc(CN5CC=C(c6cccc(OCc7ccc(Cl)cc7F)n6)CC5)n(CC5CCO5)c4c3)cc12 (stereo not drawn) [Compound 263]
7,0.51 nM,Cc1cc2c(C#N)ccc(COc3cccc(C4=CCN(Cc5nc6cc(C(=O)Nc7cc(F)c8[nH]nc(C)c8c7)ccc6n5C[C@@H]5CCO5)CC4)n3)c2s1 [Compound 350]
8,73.2 nM,O=C(Nc1cc2[nH]ccc2s1)c1ccc2c(c1)nc(CN1CC=C(c3cccc(OCc4ccc(Cl)cc4F)n3)CC1)n2C[C@@H]1CCO1 [Compound 402]
9,36.5 nM,COCCn1c(CN2CCC(c3cccc(OCc4ccc(Cl)cc4F)n3)CC2)nc2cc(C(=O)N[C@@H](C)c3ccc(O)cc3)ccc21 [Compound 40]
10,0.91 nM,CC1(c2ccc(C#N)cc2F)Oc2cccc(C3CCN(Cc4nc5cc(NC(=O)c6ccc7[nH]nc(C8CC8)c7c6)ccc5n4CC4CCO4)CC3)c2O1 (stereo not drawn) [Compound 348]
11,1.03 nM,Cc1n[nH]c2c(C(F)F)cc(NC(=O)c3ccc4c(c3)nc(CN3CC=C(c5cccc(OCc6ccc(Cl)c7cc(Cl)oc67)n5)CC3)n4C[C@@H]3CCO3)cc12 [Compound 352]
12,17.7 nM,COCCn1c(CN2CCC(c3cccc(OCc4ccc(Cl)cc4F)n3)CC2)nc2cc(C(=O)NCc3ccc4[nH]c(=O)[nH]c4c3)ccc21 [Compound 38]
13,0.92 nM,Cc1cc(C(=O)Nc2ccc3c(c2)nc(CN2CC=C(c4cccc(OCc5ccc(C#N)cc5F)n4)CC2)n3C[C@@H]2CCO2)cc2c(C3CC3)n[nH]c12 [Compound 233]
14,1.32 nM,Cc1cc(NC(=O)c2ccc3c(c2)nc(CN2CC=C(c4cccc(OCc5ccc(C#N)cc5F)n4)CC2)n3C[C@@H]2CCO2)cc2c(C3CC3)n[nH]c12 [Compound 185]
15,45.9 nM,Cc1cc(NC(=O)c2ccc3nc(CN4CC=C(c5cccc(OCc6ccc(Cl)cc6F)n5)CC4)n(CC4CCO4)c3c2)cc2c(F)n[nH]c12 (stereo not drawn) [Compound 265]
16,0.32 nM,N#Cc1ccc(COc2cccc(C3=CCN(Cc4nc5cc(C(=O)Nc6ccc7c(c6)C6(CC6)C(=O)N7)ccc5n4C[C@@H]4CCO4)CC3)n2)c(F)c1 [Compound 182]
17,6.91 nM,Cc1n[nH]c2ccc(NC(=O)c3ccc4c(c3)nc(CN3CCC(c5cccc(OCc6c(F)cnc7ccccc67)n5)CC3)n4C[C@@H]3CCO3)cc12 [Compound 380]
18,142 nM,COC(=O)[C@@H]1CC(F)(F)CN1C(=O)[C@H](C)NC(=O)c1ccc2c(c1)nc(CN1CCC(c3cccc(OCc4ccc(Cl)cc4F)n3)CC1)n2C[C@@H]1CCO1 [Compound 68]
19,0.95 nM,CC(C)c1n[nH]c2ccc(C(=O)Nc3ccc4c(c3)nc(CN3CC=C(c5cccc(OCc6ccc(Cl)cc6F)n5)CC3)n4C[C@@H]3CCO3)cc12 [Compound 223]
20,0.64 nM,CC1(c2ccc(Cl)cc2F)Oc2cccc(-c3cc(F)c(Cc4nc5cc(NC(=O)c6cc(F)c7c(c6)C(C6CC6)C(=O)N7)ccc5n4C[C@@H]4CCO4)c(F)c3)c2O1 (stereo partly drawn) [Compound 326]

row,EC50,SMILES
1,29.8 nM,O=C(Nc1ccc2[nH]c(=O)[nH]c2n1)c1ccc2c(c1)nc(CN1CCC(c3cccc(OCc4ccc(Cl)cc4F)n3)CC1)n2C[C@@H]1CCO1 [Compound 93]
2,2.95 nM,Cc1cc(-c2cccc3c2OC(C)(c2ccc(Cl)cc2F)O3)cc(F)c1Cc1nc2cc(NC(=O)c3ccc4[nH]nc(C5CC5)c4c3)ccc2n1CC1CCO1 (stereo not drawn) [Compound 324]
3,0.76 nM,CCc1n[nH]c2ccc(C(=O)Nc3ccc4c(c3)nc(CN3CCC(c5cccc6c5OC(C)(c5ccc(C#N)cc5F)O6)CC3)n4CC3CCO3)cc12 (stereo not drawn) [Compound 346]
4,0.2 nM,Cc1n[nH]c2ccc(NC(=O)c3ccc4c(c3)nc(CN3CC=C(c5cccc(OCc6ccc(C#N)cc6F)n5)CC3)n4C[C@@H]3CCO3)cc12 [Compound 187]
5,1.01 nM,Cc1n[nH]c2c(F)cc(NC(=O)c3ccc4c(c3)nc(CN3CCC(c5cccc(OCc6cc(F)c(C#N)s6)n5)CC3)n4C[C@@H]3CCO3)cc12 [Compound 375]
6,1.9 nM,O=C(NCC(=O)N1CC[C@H](O)C1)c1ccc2c(c1)nc(CN1CCC(c3cccc(OCc4ccc(Cl)cc4F)n3)CC1)n2C[C@@H]1CCO1 [Compound 70]
7,2.96 nM,O=C(Nc1ccc2c(c1)nc(CN1CC=C(c3cccc(OCc4ccc(Cl)cc4F)n3)CC1)n2C[C@@H]1CCO1)c1cc(C(F)(F)F)c2[nH]ncc2c1 [Compound 212]
8,151 nM,COC(=O)[C@@H]1CC(F)(F)CN1C(=O)CNC(=O)c1ccc2c(c1)nc(CN1CCC(c3cccc(OCc4ccc(Cl)cc4F)n3)CC1)n2C[C@@H]1CCO1 [Compound 64]
9,411 nM,COCCn1c(CN2CCC(c3cccc(OCc4ccc(Cl)cc4F)n3)CC2)nc2cc(C(=O)NCCc3ccccc3O)ccc21 [Compound 18]
10,1.03 nM,Cc1n[nH]c2ccc(NC(=O)c3ccc4c(c3)nc(CN3CCC(c5cccc(OCc6ccc(C#N)c7ccccc67)n5)CC3)n4C[C@@H]3CCO3)cc12 [Compound 378]
11,129 nM,COCCn1c(CN2CCC(c3cccc(OCc4ccc(Cl)cc4F)n3)CC2)nc2cc(C(=O)NCc3ccc(NC(C)=O)cc3)ccc21 [Compound 27]
12,0.98 nM,O=C(Nc1ccc2c(c1)nc(CN1CC=C(c3cccc(OCc4ccc(Cl)cc4F)n3)CC1)n2C[C@@H]1CCO1)c1cc(F)c2[nH]ncc2c1 [Compound 205]
13,9.04 nM,O=C(NCc1ccc2[nH][nH]c(=O)c2c1)c1ccc2c(c1)nc(CN1CCC(c3cccc(OCc4ccc(Cl)cc4F)n3)CC1)n2C[C@@H]1CCO1 [Compound 76]
14,2.73 nM,CC(C)c1n[nH]c2ccc(C(=O)Nc3ccc4c(c3)nc(Cc3cc(F)c(-c5cccc6c5OC(C)(c5ccc(C#N)cc5F)O6)cc3F)n4CC3CCO3)cc12 (stereo not drawn) [Compound 323]
15,1.58 nM,Cc1cc(NC(=O)c2ccc3c(c2)nc(CN2CCC(c4cccc5c4OC(C)(c4ccc(Cl)cc4F)O5)CC2)n3CC2CCO2)cc2c(C(F)(F)F)n[nH]c12 (stereo not drawn) [Compound 332]
16,0.3 nM,N#Cc1ccc(COc2cccc(C3CCN(Cc4nc5cc(C(=O)Nc6ccc7c(c6)C6(CC6)C(=O)N7)ccc5n4C[C@@H]4CCO4)CC3)n2)c(F)c1 [Compound 128]
17,2.13 nM,Cc1n[nH]c2cc(F)c(C(=O)Nc3ccc4c(c3)nc(CN3CC=C(c5cccc(OCc6ccc(Cl)cc6F)n5)CC3)n4C[C@@H]3CCO3)cc12 [Compound 221]
18,1.04 nM,Cc1cc(NC(=O)c2ccc3c(c2)nc(CN2CCC(c4cccc(OCc5ccc(Cl)cc5F)n4)CC2)n3C[C@@H]2CCO2)cc2c(C3CC3)n[nH]c12 [Compound 114]
19,5.78 nM,O=C(Nc1ccc2ncsc2c1)c1ccc2c(c1)nc(CN1CC=C(c3cccc(OCc4ccc(Cl)cc4F)n3)CC1)n2C[C@@H]1CCO1 [Compound 150]
